Test system: granule cell progenitor proliferation, radioactive thymidine incorporation
Experiment: inhibition of GCP proliferation, late-stage follow-up, counter-screen for Wee1 degradation inhibitor project, cell-based, radioactive thymidine incorporation (AID 504930)

| SMILES | IC50 [nM] |
| --- | --- |
| c1ccc2[nH]c(CNc3nc(N4CCOCC4)nc4c3ncn4-c3ccsc3)nc2c1 | 11.6 |
| O=[N+]([O-])c1cccc2[nH]c(CNc3nc(N4CCOCC4)nc4c3ncn4-c3ccsc3)nc12 | 4.61 |
